Values of other authors as cited in patent publication US20220130517A1, “PS[…] VARIOUS MENTAL HEALTH DISORDERS” (Ketamine SLC, priority 2020, published 2022).

Test system: mental health disorder
Settings: IV drip over 40 minutes, 0.5 mg/kg per session, six sessions over twelve days; some patients

CNC1(c2ccccc2Cl)CCCCC1=O (stereo not shown) [ketamine]
relief from the symptoms of mental health disorder: some patients experience relief from the symptoms of their mental health disorder for a period of time including weeks and/or months
